The record followed here is patent publication US20240277829A1, “HIV-1 VACCINATION AND SAMT-247 MICROBICIDE TO PREVENT HIV-1 INFECTION” (priority 2021, published 2024).

The subject of one test is NKG2A^+ cells. Nature of the test: NKG2A^+ cells, blood and mucosa, PMA (Table 1 summary). It counts as cell-based. Conditions: * Zinc dependence. How it is done:
Intracellular cytokines of Human blood NK cells using SAMT-247 and PMA stimulation with or without zinc chelator. The levels of NKG2A^+ NK cells were measured in blood of healthy humans. Human PBMCs were thawed and cultured in R10 in the presence or absence of SAMT-247 and/or PMA for 12 hours. Cells were incubated with or without Zinc chelator TPEN (cat. #P4413-100 MG, 5 μM) for 12 h. Subsequently, PBMCs were surface stained with the following: BUV737 anti-CD3 (SP34-2; cat. #741872, 5 μl), Alexa700 anti-CD20 (2H7; cat. #560631, 5 μl), BV786 anti-CD45 (HI30; cat. #563716, 5 μl) from BD Biosciences; APC-H7 anti-CD11b (ICRF44; cat. #47-0118-42, 5 μl) from eBioscience and PE-Cy7 anti-NKG2A (Z199; cat. #B10246, 5 μl) from Beckman coulter for 30 minutes at room temperature. This was followed by permeabilization with FOX3-transcription buffer set (cat. #00-5523-00) from eBioscience according to the manufacture's recommendation and subsequently intracellular staining with the following: BV750 anti-TNF-α (MAB11; cat. #566359, 5 μl), BUV396 anti-IFN-γ (B27; cat. #563563, 5 μl), BV510 anti-GranB (GB11; cat. #563388, 5 μl) from BD Biosciences; and FITC anti-Perforin (pf-344; cat. #3465-7, 5 μl) from MABTECH for 30 minutes at room temperature. Flow cytometry acquisitions were performed on a FACSymphony A5 and examined using FACSDIVA™ software (BD Biosciences).
Frequencies and cytokine levels of macaque rectal mucosal NK cells and T cells following SAMT-247 and PMA stimulation. NK/ILC and T cell frequencies and cytokine levels were measured in macaque rectal mucosa. Freshly collected rectal biopsies were processed to single cells and cultured in R10 in the presence/or absence of SAMT-247 and/or PMA for 12 hours. […]

Test [1] concerns human PBMC effector cells. Nature of the test: ADCC assay using SAMT-247. The test is classed as cell-based. On the procedure:
ADCC CEM-based assay. ADCC activity was assessed as previously described using EGFP-CEM-NKr-CCR5-SNAP cells that constitutively express GFP as targets (Rahman, M. A., et al, J Immunol 203, 2459-2471(2019)). Briefly, one million target cells were incubated with 50 μg of ΔV1 gp120 protein for 2 h at 37° C. After this coating, the target cells were washed and labeled with SNAP-SURFACE® ALEXA FLUOR® 647 (New England Biolabs, Connecticut, USA S9136S) per manufacturer recommendations for 30 min at RT. Plasma samples, heat inactivated at 56° C. for 30 min, were serially diluted (7 ten-fold dilutions starting at 1:10) and 100 μl were added to wells of a 96-well V-bottom plate (Millipore Sigma). 5000 target cells (50 μl) and 250,000 human PBMCs (50 μl) were added as effectors to each well to give an effector/target (E/T) ratio of 50:1. The plate was incubated at 37° C. for 2 h followed by two PBS washes. […] Specific killing was measured by loss of GFP from the SNAPAlexa647+ target cells. […] Normalized percent killing was calculated as: (killing in the presence of plasma-background)/(killing in the presence of KK17-background) X100. […]
ADCC assay using SAMT-247. […] SAMT-247 induced ADCC was measured by subtracting ADCC with no SAMT-247 treated effector cells from ADCC with SAMT-247 treated effector cells.

`CC(=O)Sc1ccccc1C(=O)NCCC(N)=O` [SAMT-247]: the Cytokine entry is “<IFN-γ *” in the test on NKG2A^+ cells (IFN-γ); “<TNF-α *” in the test on NKG2A^+ cells (TNF-α); “>Granzyme/Perforin” in the test with NKG2A^+ cells (granzyme and perforin). For the same compound, the Function entry in test [1] (NKG2A^+, Blood and mucosa, PMA) is reported as “>ADCC”. Moreover, the “ADCC activity mediated by the plasma of all vaccinated animals” value in test [1] (effector human PBMCs pretreated with 100 nM SAMT-247 for 4 hours) is recorded as “significantly augments”.
